The values that follow come from patent publication US9556215B2, “Synthetic pentasaccharides having short half-life and high activity” (CARBOMIMETICS, priority 2011, dated 2017).

By IC50 is commonly meant the concentration that inhibits the measured activity by half.

For series [1] the following is noted: cited from earlier work.
The nature of series [2]: Pharmacokinetic study after intravenous administration (half-life of elimination). It counts as in vivo, female Wistar Han rats. The settings on record: plasma concentration by anti-factor Xa bioassay. As for the experimental part: Quantification of Compounds in Plasma
Rat plasmatic concentration of compounds (μg compound/mL plasma) was determined using a bioassay based on their anti-factor Xa activity (Stachrom HP kit, Diagnostica Stago as described above). This assay was carried out on a STA Compact (Diagnostica Stago). A specific calibration curve was preformed with each compound to be quantified in rat plasma.
Pharmacokinetic Study after Intravenous Administration (Half-Life of Elimination, T½)
The pharmacokinetics of the compounds of the present invention were investigated in female Wistar Han rats after intravenous administration.
Blood samples were taken at various time points and blood (9 volumes) was mixed with sodium citrate (1 volume) and cooled immediately on ice. The sample was subjected to a centrifugation at 3000×g for 10 minutes at low temperature (the plasma is typically stable for 24 h at temperature below 8° C.) and stored frozen at −20° C. Concentration of compound (per mL of plasma) was determined by their anti-factor Xa activity using factor Xa activity as described above.
For each compound, the half-life of elimination was calculated from the concentration versus time curve thus obtained.

Series [3] concerns the target T1, factor Xa in the presence of AT (Homo sapiens, UniProt P01008).
T1 construct: purchased Diagnostica Stago Stachrom HP kit
The series is described as follows: Determination of anti-factor Xa activity (IC50), Stachrom HP kit. It counts as biochemical. The conditions noted are these: factor Xa inhibition in the presence of AT. As for the experimental part: In the description of exemplified compounds, “IC50” represents the anti-factor Xa activity.
Determination of Anti-Factor Xa Activity of Compounds (IC50)
The compounds were compared as to their ability of inhibiting factor Xa in the presence of AT under standard conditions. For each compound a curve was plotted representing the inhibition % vs. concentration. The concentration inhibiting 50% of the factor Xa activity (IC50) was determined. A commercially available system was used for this purpose: compoundStachrom HP kit (Diagnostica Stago). This assay was carried out on a STA Compact (Diagnostica Stago).

T1 sequence (P01008 33-464): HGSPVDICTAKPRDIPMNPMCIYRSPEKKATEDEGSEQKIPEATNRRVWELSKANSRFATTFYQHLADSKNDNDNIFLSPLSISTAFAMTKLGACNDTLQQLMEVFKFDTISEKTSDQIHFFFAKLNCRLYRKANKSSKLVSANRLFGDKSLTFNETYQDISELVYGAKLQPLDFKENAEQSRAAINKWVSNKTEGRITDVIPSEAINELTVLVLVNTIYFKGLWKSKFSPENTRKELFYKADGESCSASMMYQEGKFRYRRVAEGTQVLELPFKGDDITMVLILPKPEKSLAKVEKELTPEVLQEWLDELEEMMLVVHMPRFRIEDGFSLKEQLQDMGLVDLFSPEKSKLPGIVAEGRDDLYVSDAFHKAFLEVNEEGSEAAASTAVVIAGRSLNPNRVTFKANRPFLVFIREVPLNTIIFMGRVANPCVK

As to `CO[C@H]1O[C@H](COS(=O)(=O)O)[C@@H](O[C@@H]2O[C@@H](C(=O)O)[C@@H](O[C@H]3O[C@H](COS(=O)(=O)O)[C@@H](O[C@@H]4O[C@H](C(=O)O)[C@@H](O[C@H]5O[C@H](COS(=O)(=O)O)[C@@H](O)[C@H](O)[C@H]5NS(=O)(=O)O)[C@H](O)[C@H]4O)[C@H](OS(=O)(=O)O)[C@H]3NS(=O)(=O)O)[C@H](O)[C@H]2OS(=O)(=O)O)[C@H](O)[C@H]1NS(=O)(=O)O` [Fondaparinux sodium], in series [1], the half-life in human is listed as 17 h.
`CCCCCCOC1C(COS(=O)(=O)O)OC(OC2C(OC)C(OC)C(OC3C(COS(=O)(=O)O)OC(OC4C(OC)C5OCC4(C(=O)O)OC5OC4C(COS(=O)(=O)O)OC(OC)C(OS(=O)(=O)O)C4OC)C(OS(=O)(=O)O)C3OS(=O)(=O)O)OC2(CC)C(=O)O)C(N)C1OCCCCCC` (centres unmarked) [Compound PA02]: the “T1/2 (Rat), half-life of elimination” value in series [2] stood at 4.8 ± 0.5 h. In series [3], the IC50 stood at 108 nM.
In the case of `CCC1(C(=O)O)OC(OC2C(COS(=O)(=O)O)OC(OC3C(OC)C4OCC3(C(=O)O)OC4OC3C(COS(=O)(=O)O)OC(OC)C(OS(=O)(=O)O)C3OC)C(OS(=O)(=O)O)C2OS(=O)(=O)O)C(OC)C(OC)C1OC1OC(COS(=O)(=O)O)C(OC)C(OC)C1OC` (centres unmarked) [Compound PA01], the half-life in series [2] (female, Wistar Han, rat, read-out: T1/2 (Rat), half-life of elimination (converted)) was 3.5 ± 0.3 h. Besides, the IC50 in series [3] is 34 nM.
